Data as given in ChEMBL document CHEMBL1201862, “PubChem BioAssay data set” (2004).
Activity calls are given as the source filed them.

What was measured:
HEK293 [1] = assay: cells; format: functional, cell-based; settings: Homo sapiens
HEK293 [2] = assay: cells; format: functional, cell-based; settings: Homo sapiens; remark: listed apart in the source
HEK293 [3] = assay: NOD1 signaling inhibitors, primary screen, cell-based, luminescence, uHTS (AID 1578); format: functional; settings: Homo sapiens
[4] = molecular target: T1, High affinity choline transporter 1 (Homo sapiens, UniProt Q9GZV3); assay: CHT inhibitors, dose response, cell-based, 5-point CRC, membrane potential dye (AID 504840); format: functional
T1 sequence (Q9GZV3 whole entry): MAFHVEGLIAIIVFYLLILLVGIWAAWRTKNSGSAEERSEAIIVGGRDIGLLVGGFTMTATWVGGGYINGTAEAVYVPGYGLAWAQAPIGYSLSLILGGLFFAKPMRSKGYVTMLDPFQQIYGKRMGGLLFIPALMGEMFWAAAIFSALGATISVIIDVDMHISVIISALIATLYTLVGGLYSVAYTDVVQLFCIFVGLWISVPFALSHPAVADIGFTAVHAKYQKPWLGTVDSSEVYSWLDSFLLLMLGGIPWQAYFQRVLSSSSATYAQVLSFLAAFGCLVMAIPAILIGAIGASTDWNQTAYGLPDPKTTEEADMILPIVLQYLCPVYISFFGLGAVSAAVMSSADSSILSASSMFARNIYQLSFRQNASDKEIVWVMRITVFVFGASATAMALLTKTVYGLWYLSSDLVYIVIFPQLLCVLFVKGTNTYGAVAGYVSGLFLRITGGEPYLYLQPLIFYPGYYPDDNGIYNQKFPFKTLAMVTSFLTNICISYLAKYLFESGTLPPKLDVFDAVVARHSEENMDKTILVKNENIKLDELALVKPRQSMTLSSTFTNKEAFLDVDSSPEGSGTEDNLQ

HEK293 [5] = assay: NOD2 signaling inhibitors in MDP-stimulated cells, cell-based, uHTS, luminescence (AID 2001); format: functional; settings: Homo sapiens
Vero = Vero cell cytotoxicity, cytotoxicity control for flavivirus capping enzyme inhibitors (AID 588742); format: functional; settings: Chlorocebus sabaeus
[6] = molecular target: Beta-2 adrenergic receptor (Homo sapiens, UniProt P07550); assay: beta2AR agonists driving receptor internalization, dose response, cell-based, FAP fluorogen, flow cytometry, cherry pick 1 (AID 588763); format: functional
Sequence of Beta-2 adrenergic receptor (P07550 whole entry): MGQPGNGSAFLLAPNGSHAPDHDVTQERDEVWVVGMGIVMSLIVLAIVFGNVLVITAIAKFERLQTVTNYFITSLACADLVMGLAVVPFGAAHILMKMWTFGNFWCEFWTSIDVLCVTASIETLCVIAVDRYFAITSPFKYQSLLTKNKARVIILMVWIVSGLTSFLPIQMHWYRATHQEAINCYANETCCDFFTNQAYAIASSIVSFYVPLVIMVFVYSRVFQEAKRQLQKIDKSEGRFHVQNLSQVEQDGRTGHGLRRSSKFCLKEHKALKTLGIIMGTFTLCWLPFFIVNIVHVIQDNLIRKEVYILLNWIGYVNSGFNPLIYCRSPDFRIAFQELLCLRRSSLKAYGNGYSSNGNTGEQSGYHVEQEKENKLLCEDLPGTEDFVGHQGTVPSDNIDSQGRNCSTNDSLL

SMILES | IC50 (HEK293 [1]) | IC50 (HEK293 [2]) | EC50 (HEK293 [3]) | IC50 [4] | IC50 (HEK293 [5]) | CC50 (Vero) | EC50 [6]
Cc1ccccc1N1C(=O)NC(=O)/C(=C\c2c(-c3ccccc3)[nH]c3ccccc23)C1=O | 8.69 µM (active) | > 20 µM (inactive) | 6.37 µM (active) | 11 µM (active) | 15.4 µM (inactive) | 23.2 µM (active) | –
CCN(CC)S(=O)(=O)c1cc(NC(=O)C2=COCCO2)ccc1Cl | – | – | – | – | – | – | 0.038 µM (active)
